Among the data in patent US10441550B2, “Nanofibrous materials as drug, protein, or genetic release vehicles” (BioSurfaces, Inc., priority 2005, dated 2019) are MIC50 and antifungal activity values, retold here.

The conditions of test [1]: organism not given; cited from earlier work.
Another test concerns Candida albicans. The test can be described thus: Turbidity assay (broth macrodilution, NCCLS M27-A). It counts as cell-based. To be noted: 40 micrograms Diflucan in solution; activity decreases as inoculum increases.

Procedure for Candida albicans: Candida albicans was purchased from ATCC.
A broth macrodilution assay was performed based on the NCCLS M27-A protocol. The stock fungal inoculum concentration was determined via backplating a set volume of the diluted fungus broth onto Trypticase Soy Agar plates. The number of colony forming units (cfu) grown per plate was then counted and extrapolated to determine the starting Candida concentration.
The stock fungus solution was then diluted to 10^6, 10^5 and 10^4 cfu/ml. After incubating the individual test segments in 2 ml of the fungus solutions for 24 hours at 30° C., the optical density of the broth solutions was measured at 492 nm.

As for `O=C(O)c1cn(C2CC2)c2cc(N3CCNCC3)c(F)cc2c1=O` [Cipro, Ciprofloxacin], in test [1], the MIC50 is reported as 0.26 micrograms per ml.

As to `OC(Cn1cncn1)(Cn1cncn1)c1ccc(F)cc1F` [Diflucan, Fluconazole], the antifungal activity entry in the test with Candida albicans is given as “excellent antifungal activity”.
